{"source": "patent US20240018470A1", "about": "“METHOD OF MANIPULATING PLURIPOTENCY IN CELLS” (YALE UNIVERSITY, priority 2022, published 2024)", "key": {"[1]": {"test_system": "animal pole cells (prospective ectoderm)", "assay": "Intracellular Vm recordings in animal pole cells", "type": "in vivo, Xenopus tropicalis", "conditions": "stage 10 (gastrulation onset), animal pole, MO injected embryos", "text": "For recordings, devitellinized, stage 10 kcnh6 or control MO injected embryos were mounted into non-toxic clay with their animal pole exposed and covered with 1/9×MR. To investigate the resting potential, animal pole cells were impaled with a high-impedance (˜70 Me), sharp microelectrode filled with 3 M KCl for intracellular recordings. The recordings were made using an Axon 200B amplifier and digitized using a Digidata 1320 digitizer. Jclamp software for Windows was used in current clamp mode. All electrodes were zeroed just before entry into the cells.\nFor the series of intracellular recordings in high K^+ and choline treated embryos, stage 8-9 embryos were impaled similarly with an electrode of […]. These recordings were made using a HEKA EPC10 amplifier. The present study used HEKA PatchMaster v2x67 software for Windows. […]\nIn experiments where embryos were evaluated for phenotypes and scored (gastrulation, left-right patterning, in situ hybridizations) the present study carried out three to five biological replicates and Fisher's exact test to evaluate statistical significance. […] For the calcium transient analyses, data was collected from three to five embryos in each experiment in three independent experiments, and statistical analyses on GCaMP/mCherry fluorescence intensity as well as Ca^2+ transient area were performed using student's t-test. […]"}, "[2]": {"test_system": "animal pole of stage 10 embryos", "assay": "Calcium imaging (GCaMP6/mCherry) of the animal pole", "type": "in vivo, Xenopus tropicalis", "conditions": "stage 10, 20 s time lapse", "description": "GCaMP6 and mCherry mRNAs were mixed and injected into embryos at the one-cell stage. Half of these embryos were then injected with kcnh6 MO and the other half with control MO, still at the one-cell stage. Embryos were transferred at stage 10 into the round wells of a press-to-seal silicone isolator (Sigma 53685) mounted between two cover slips in 2% Methylcellulose- 1/9×MR. GcaMP6 and mCherry fluorescence was then captured for 20s (1 frame per second) via time lapse in the whole animal pole of each embryo with a 20× objective of an LSM710 confocal microscope using identical acquisition settings across Control MO and kcnh6 MO embryos. […] However, all embryos did display transient increases in GcaMP6 fluorescence, varying in intensity and spreading to multiple cells. The frames of each recording were sorted to identify the calcium transient peak (in area), and GcAMP6 fluorescence intensity was quantified at peak as a ratio to mCherry in mCherry+ cells. The maximum Ca′ transient area was calculated by demarcating in Fuji the GCaMP6(+) vs GcaMP6(−) area of the animal pole at transient peak. […]\nIn experiments where embryos were evaluated for phenotypes and scored (gastrulation, left-right patterning, in situ hybridizations) the present study carried out three to five biological replicates and Fisher's exact test to evaluate statistical significance. […]"}}, "data": [{"substance": "kcnh6 MO: kcnh6 translation blocking morpholino oligonucleotide, 5′-GGTCCTCGAAGTTTAGGATAAACAT-3′, SEQ ID NO:1 (all phosphorodiamidate morpholino (PMO))", "values": [{"measurement": "Vm", "setting": "[1]", "value": "−21.8±4.6", "unit": "mV"}, {"measurement": "animal pole area simultaneously affected by Ca^2+ transients, average", "setting": "[2]", "value": "71±11", "unit": "%"}, {"measurement": "animal pole area with simultaneous calcium increases in most embryos", "setting": "[2]", "value": "> 90", "unit": "%"}]}]}
